Measurements from patent US8940897B2, “1,3,4-oxadiazole and 1,3,4-thiadiazole β-lactamase inhibitors” (priority 2012, dated 2015).
Counter-ions that a name gives are not always drawn.

Key:
[1] = tested on: bacterial strains that express the class D cephalosporinase OXA-15; experiment: Synergy MIC / standard BLI potentiation MIC assay, strains expressing OXA-15;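 note: more active means a lower MIC or sMIC than Avibactam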; assay type: cell-based, E. coli; conditions: in the presence of a β-lactam; comparator Avibactam (CCC)
Description: (§1) Unless otherwise indicated, the activity of the BLI compounds can be described by the MIC value obtained from a Synergy MIC assay or a BLI potentiation assay (e.g as described herein), both of which are run in the presence of a β-lactam.
(§2) The experimental protocol was performed according to Clinical and Laboratory Standards Institute (CLSI) guidelines with modifications as described below (CLSI guidelines can be derived from the CLSI document M07-A9 published in January 2012: “Methods for Dilution Antimicrobial Susceptibility Tests for Bacteria That Grow Aerobically; Approved Standard-Ninth Edition”).
(§3) To prepare for MIC testing, frozen glycerol stocks of clinical isolates (Klebsiella pneumoniae, Eschericia coli, Enterobacter spp, Citrobacter spp, or Pseudomonas aeruginosa) were used to streak for isolated colonies on rich, non-selective, tryptic soy agar containing 5% sheep's blood (TSAB). Frozen glycerol stocks of laboratory engineered, isogenic E. coli strains, which contain cloned β-lactamase expressing plasmids were used to streak for isolated colonies on rich, selective LB agar supplemented with 25 μg/mL tetracycline to maintain the plasmid. All strains were incubated at 37° C. for 18-24 hrs.
(§4) On the day of testing, primary cultures were started by scraping off 5-10 colonies from the TSAB plates containing clinical strains or the tetracycline supplemented LB plates containing engineered strains. The clinical strain material was suspended in ˜5 mL of cation adjusted Mueller Hinton Broth (CAMHB) in 14 mL culture tubes. The engineered strain material was suspended in CAMHB (supplemented with 25 μg/mL tetracycline) in 14 mL culture tubes. All strains were incubated at 37° C. with aeration (200 rpm) for ˜2 hrs until the optical density at 600 nm (OD600) was ≧0.1.
(§5) The two compound components of the assay were each diluted in CAMHB and added to the 96-well broth microdilution assay plates. 50 μL of the β-lactam was added to each well of the assay plate in 2-fold dilutions with final concentrations ranging from 128 to 0.13 μg/mL. 25 μL of the BLI compound was added to all wells in the broth microdilution plates at a final concentration of 4 μg/mL. Inoculum cultures were prepared by standardizing the primary cultures to OD600=0.1 and then adding 20 μL of the adjusted primary culture per 1 mL CAMHB for clinical strains or CAMHB (supplemented with tetracycline at 100 μg/mL) for engineered strains, so that the final inoculum density was ˜10^5 colony forming units per milliliter. Diluted inoculum cultures were used to inoculate 25 μl, per well in 96-well broth microdilution assay plates. The final volume of each well was 100 μL and contained a β-lactam at different concentrations, a BLIcompound at 4 μg/mL concentration, the bacterial culture at an OD600 of approximately 0.001 and when necessary tetracycline at 25 μg/mL.
(§6) Plates were incubated for 18-20 hours at 37° C. with aeration (200 rpm). Following incubation, growth was confirmed visually placing plates over a viewing apparatus (stand with a mirror underneath) and then OD600 was measured using a SpectraMax 340PC384 plate reader (Molecular Devices, Sunnyvale, Calif.). Growth was defined as turbidity that could be detected with the naked eye or achieving minimum OD600 of 0.1. MIC values were defined as the lowest concentration producing no visible turbidity.
(§7) The synergy MIC (sMIC) assay determines the concentration of the BLI required to potentiate the activity of a fixed concentration of a β-lactam antibiotic against β-lactamase producing bacterial strains. The experimental protocol was performed according to Clinical and Laboratory Standards Institute (CLSI) guidelines with modifications as described below (CLSI guidelines can be derived from the CLSI document M07-A9 published in January 2012: “Methods for Dilution Antimicrobial Susceptibility Tests for Bacteria That Grow Aerobically; Approved Standard-Ninth Edition”). […]

[2] = tested on: bacterial strains that express KPC β-lactamases; experiment: Synergy MIC / standard BLI potentiation MIC assay, strains expressing KPC β-lactamases; assay type: cell-based; conditions: for at least one KPC strain and/or a better spectrum of activity against KPC strains than Avibactam; in the presence of a β-lactam
Description: as §1, §2, §3, §4, §5, §6, §7

| Structure (SMILES) | activity against bacterial strains that express OXA-15 β-lactamase compared with Avibactam [1] | activity against bacterial strains that express KPC β-lactamase compared with Avibactam [2] |
| --- | --- | --- |
| N[C@H]1C[C@@H](Cc2nnc([C@@H]3CC[C@@H]4CN3C(=O)N4OS(=O)(=O)O)o2)C1 [Compound 728, (2S,5R)-2-(5-(((1s,3R)-3-aminocyclobutyl)methyl)-1,3,4-oxadiazol-2-yl)-7-oxo-1,6-diazabicyclo[3.2.1]octan-6-yl hydrogen sulfate] | more active than Avibactam | more active than Avibactam |
| N[C@@H]1CC[C@H](c2nnc([C@@H]3CC[C@@H]4CN3C(=O)N4OS(=O)(=O)O)o2)C1 [Compound 729, (2S,5R)-2-(5-((1S,3R)-3-aminocyclopentyl)-1,3,4-oxadiazol-2-yl)-7-oxo-1,6-diazabicyclo[3.2.1]octan-6-yl hydrogen sulfate] | more active than Avibactam | more active than Avibactam |
| N=C(N)NCC(O)Cc1nnc([C@@H]2CC[C@@H]3CN2C(=O)N3OS(=O)(=O)O)o1 (stereo partly drawn) [Compound 730, (2S,5R)-2-(5-(3-guanidino-2-hydroxypropyl)-1,3,4-oxadiazol-2-yl)-7-oxo-1,6-diazabicyclo[3.2.1]octan-6-yl hydrogen sulfate] | more active than Avibactam | more active than Avibactam |
| N=C(N)NC[C@@H](O)c1nnc([C@@H]2CC[C@@H]3CN2C(=O)N3OS(=O)(=O)O)o1 [Compound 731, (2S,5R)-2-(5-((R)-2-guanidino-1-hydroxyethyl)-1,3,4-oxadiazol-2-yl)-7-oxo-1,6-diazabicyclo[3.2.1]octan-6-yl hydrogen sulfate] | more active than Avibactam | more active than Avibactam |
| N=C(N)NC[C@H](O)c1nnc([C@@H]2CC[C@@H]3CN2C(=O)N3OS(=O)(=O)O)o1 [Compound 732, (2S,5R)-2-(5-((S)-2-guanidino-1-hydroxyethyl)-1,3,4-oxadiazol-2-yl)-7-oxo-1,6-diazabicyclo[3.2.1]octan-6-yl hydrogen sulfate] | more active than Avibactam | more active than Avibactam |
| CNCCCc1nnc([C@@H]2CC[C@@H]3CN2C(=O)N3OS(=O)(=O)O)o1 [Compound 734, (2S,5R)-2-(5-(3-(methylamino)propyl)-1,3,4-oxadiazol-2-yl)-7-oxo-1,6-diazabicyclo[3.2.1]octan-6-yl hydrogen sulfate] | more active than Avibactam | more active than Avibactam |
| NCCCCc1nnc([C@@H]2CC[C@@H]3CN2C(=O)N3OS(=O)(=O)O)o1 [Compound 735, (2S,5R)-2-(5-(4-aminobutyl)-1,3,4-oxadiazol-2-yl)-7-oxo-1,6-diazabicyclo[3.2.1]octan-6-yl hydrogen sulfate] | more active than Avibactam | more active than Avibactam |
| O=C1N2C[C@@H](CC[C@H]2c2nnc(CCNCCO)o2)N1OS(=O)(=O)O [Compound 736, (2S,5R)-2-(5-(2-((2-hydroxyethyl)amino)ethyl)-1,3,4-oxadiazol-2-yl)-7-oxo-1,6-diazabicyclo[3.2.1]octan-6-yl hydrogen sulfate] | more active than Avibactam | more active than Avibactam |
| CC(C)(N)Cc1nnc([C@@H]2CC[C@@H]3CN2C(=O)N3OS(=O)(=O)O)o1 [Compound 737, (2S,5R)-2-(5-(2-amino-2-methylpropyl)-1,3,4-oxadiazol-2-yl)-7-oxo-1,6-diazabicyclo[3.2.1]octan-6-yl hydrogen sulfate] | more active than Avibactam | more active than Avibactam |
| N=C(N)Nc1nnc([C@@H]2CC[C@@H]3CN2C(=O)N3OS(=O)(=O)O)o1 [Compound 738, (2S,5R)-2-(5-guanidino-1,3,4-oxadiazol-2-yl)-7-oxo-1,6-diazabicyclo[3.2.1]octan-6-yl hydrogen sulfate] | more active than Avibactam | more active than Avibactam |
| N=C(N)NC1(Cc2nnc([C@@H]3CC[C@@H]4CN3C(=O)N4OS(=O)(=O)O)o2)CC1 [Compound 739, (2S,5R)-2-(5-((1-guanidinocyclopropyl)methyl)-1,3,4-oxadiazol-2-yl)-7-oxo-1,6-diazabicyclo[3.2.1]octan-6-yl hydrogen sulfate] | more active than Avibactam | more active than Avibactam |
| O=C1N2C[C@@H](CC[C@H]2c2nnc([C@H]3[C@@H]4CNC[C@@H]43)o2)N1OS(=O)(=O)O [Compound 740, (2S,5R)-2-(5-(3-azabicyclo[3.1.0]hexan-6-yl)-1,3,4-oxadiazol-2-yl)-7-oxo-1,6-diazabicyclo[3.2.1]octan-6-yl hydrogen sulfate] | more active than Avibactam | more active than Avibactam |
| N=C(N)N1CC(Cc2nnc([C@@H]3CC[C@@H]4CN3C(=O)N4OS(=O)(=O)O)o2)C1 [Compound 741, (2S,5R)-2-(5-((1-carbamimidoylazetidin-3-yl)methyl)-1,3,4-oxadiazol-2-yl)-7-oxo-1,6-diazabicyclo[3.2.1]octan-6-yl hydrogen sulfate] | more active than Avibactam | more active than Avibactam |
| O=C1N2C[C@@H](CC[C@H]2c2nnc(CCC3CNC3)o2)N1OS(=O)(=O)O [Compound 742, (2S,5R)-2-(5-(2-(azetidin-3-yl)ethyl)-1,3,4-oxadiazol-2-yl)-7-oxo-1,6-diazabicyclo[3.2.1]octan-6-yl hydrogen sulfate] | more active than Avibactam | more active than Avibactam |
| O=C1N2C[C@@H](CC[C@H]2c2nnc(CCCC3CNC3)o2)N1OS(=O)(=O)O [Compound 743, (2S,5R)-2-(5-(3-(azetidin-3-yl)propyl)-1,3,4-oxadiazol-2-yl)-7-oxo-1,6-diazabicyclo[3.2.1]octan-6-yl hydrogen sulfate] | more active than Avibactam | more active than Avibactam |
| O=C1N2C[C@@H](CC[C@H]2c2nnc(COC3CNC3)o2)N1OS(=O)(=O)O [Compound 744, (2S,5R)-2-(5-((azetidin-3-yloxy)methyl)-1,3,4-oxadiazol-2-yl)-7-oxo-1,6-diazabicyclo[3.2.1]octan-6-yl hydrogen sulfate] | more active than Avibactam | more active than Avibactam |
